{"source": "patent US20040034216A1", "about": "“3-Nitrogen-6,7-dioxygen steroids and uses related thereto” (priority 2003, published 2004)", "key": {"[1]": {"tested_on": "Rat Mast Cell Line (RBL-2H3)", "assay": "Antigen-induced release of hexosaminidase from a rat mast cell line (RBL-2H3)", "format": "cell-based", "conditions": "Rattus norvegicus, RBL-2H3, inhibition of antigen (DNP-HSA)-induced hexosaminidase release, tested at 0.3, 3, 10 and 30 μM, read-out: Hex IC50", "experimental": "The anti-allergic effects of a compound of the present invention was evaluated by measuring its effect on antigen-induced secretion of hexosaminidase from a passively sensitized rat mast cell line. The ability of a test compound to inhibit the release of mast cell granule contents, e.g., histamine and hexosaminidase, is indicative of the anti-allergy and/or anti-asthma activity of the compound. Hexosaminidase is released from the mast cell granule along with histamine and other mediators during antigen challenge. The test is performed as follows.\nRBL-2H3 cells are grown in culture and passively sensitized for 1 hour at 37° C. to dinitrophenol (DNP) using anti-human-DNP (IgE). Cells are incubated with test compound for 30 minutes at 37° C. and stimulated with 0.5 μg/ml DNP-HSA (antigen) for 30 minutes. Aliquots of the supernatant are removed and used to measure the amount of hexosaminidase released during challenge with the antigen. The amount of hexosaminidase present in the supernatant is determined colorimetrically by monitoring the enzymatic metabolism of p-nitrophenyl-N-acetyl-β-D-glucosaminide (p-NAG) over a period of 60 minutes at 405 nm. The effect of each test compound is determined as a percentage of the antigen-induced response (minus background release) obtained in the presence of DMSO alone. These values are used to determine the degrees of inhibition of antigen-induced hexosaminidase release from the cells."}, "[2]": {"assay": "Metabolic stability in human liver S9 fractions", "format": "in vitro ADME", "from_the_text": "The therapeutic effectiveness of a test compound can be often directly related to its metabolic stability in vivo. The majority of known, marketed drugs are metabolized by a group of enzymes known as P450 enzymes. The S9 fraction of human liver contains all the P450 enzymes and also cytoplasmic enzymes that may be involved in the metabolism of new chemical entities. Metabolism in vitro using human S9 fractions is a standard assay to evaluate relative metabolic stability of new compounds. The test is performed as follows.\nReagents are thawed on ice and combined to make up a Master Mix as follows: Potassium phosphate (100 mM, pH 7), G6P (0.25 mM), G6PDH (2 U/ml), NADPH (1 mM), UDP (0.25 mM), APPS (0.25 mM), and S9 fraction (2 mg/ml). A volume of 498 μl of the Master mix is dispensed into each microcentrifuge tube. A volume of 2 μl of 2.5 mM test compound (final concentration of 10 μM) is dispensed into the center of the lid of the appropriate tube, and the lids gently closed to prevent mixing. Synchronous combination of test compound and master mix is achieved by simultaneous ten times inversion of the tubes, which are then incubated at 37° C. and shaken at 150 rpm for the appropriate incubation times. While incubation is in progress, all 0 time samples are mixed individually by three times inversion followed by the immediate addition of 500 μl ice cold acetonitrile with three times inversion to stop the reaction. Immediately after each 15 minutes and 30 minutes incubation is complete, ice cold acetonitrile is added to each tube and the tubes mixed by three times inversion. All sample tubes are incubated at −80° C. for a minimum of 15 minutes, thawed and remixed by inversion. Aliquots of 650 μl are transferred to Chromatographic Specialties micro-system spin filter system tubes (0.2 μm nylon membrane, C618505) and centrifuged at 13,000 rpm for 48 seconds. The sample filtrates are stored at −80° C.\nSample filtrates are analyzed on LCMS, and percent remaining after 15 and 30 minute incubation is calculated relative to the 0 minute incubation.\nThe metabolic stability of various compounds are summarized in Table 10 as the percent remaining after 15 or 30 minutes incubation with human liver S9 fractions."}, "[3]": {"tested_on": "sensitized Brown Norway rats", "assay": "Ovalbumin-induced accumulation of inflammatory cells in lung lavage fluid (allergen-induced lung inflammation)", "format": "in vivo, rat", "conditions": "p.o.", "experimental": "The ability of a compound to inhibit the allergen-induced accumulation of inflammatory cells such as eosinophils and neutrophils in the lavage fluid obtained from sensitized animals is indicative of that compound's anti-asthma activity. […] The test is conducted as follows.\nMale Brown Norway rats are sensitized to ovalbumin by single intraperitoneal injection of 1 mg ovalbumin adsorbed to 100 mg […] (alum) in 1 ml sterile saline (saline control rats receive only sterile saline) on day 1, and allowed to sensitize until day 21. […] Rats are challenged with 0.5% ovalbumin in saline generated using a Devillbis nebulizer for 60 min on day 21.\nForty-eight hrs after challenge, animals are sacrificed with an overdose of intraperitoneally-delivered sodium pentobarbitol and the lungs are lavaged with cold 2×7 ml phosphate buffered saline. The recovered lavage fluid is placed on ice. The bronchoalveolar lavage fluid is centrifuged and the supernatant removed. The pellet is resuspended in phosphate buffered saline at 4° C. Cytospins are prepared and stained for differentiation and enumeration of cell types.\nTest compound was administered in 300 μl corn oil (Tables 7 and 8) or water (Table 9), which were used as vehicles. Control animals received 300 μl corn oil or water alone, i.e., no drug. […] A negative value in Table 7, 8, or 9 indicates an exacerbation of the effect over the control animal."}, "Jurkat clone E6.1 cells": {"tested_on": "Jurkat clone E6.1 cells", "assay": "Antigen-induced calcium flux in anti-CD3 stimulated Jurkat cells (Fura 2AM)", "format": "cell-based", "conditions": "Homo sapiens, Jurkat, read-out: Calcium (% inhibition at 20 μM), 20 μM; anti-CD3 mAb stimulated Jurkat clone E6.1 cells", "from_the_text": "Elevation of cytoplasmic calcium concentration is a common and crucial event which follows the activation of many types of cell surface receptors. Increases in intracellular calcium that occur following agonist activation of inositol lipid hydrolysis are the results of calcium release from the endoplasmic reticulum and the influx of calcium through the plasma membrane. Increases in cytosolic calcium concentration are involved in many important cellular responses in the inflammatory process including adhesion, motility, gene expression, proliferation, and degranulation. Changes in intracellular calcium concentrations can affect both short and long term cellular responses. An assay method to evaluate a test compound's impact on calcium flux is provided as follows.\nThe resulting supernatants are discarded and each pellet is washed in 10 mL HBSS. Cell suspensions are accumulated and centrifuged for 5 minutes at 900 RPM to form a cell pellet. The resulting supernatant is discarded and the pellet is resuspended in HBSS at 1×10^7cells/mL. The cell suspension is transferred to a 20 mm petri dish and incubated at 37° C., 5% CO2 for 20 minutes.\nOne volume of Fura 2AM is mixed to one volume of detergent Pluronic F127. Cells are labeled with 4 μL of probe solution to each mL of cell suspension. The petri dish is wrapped in aluminum foil to protect from light and placed on a plate shaker for 30 minutes at room temperature.\nThe following steps are done in the laminar flow hood with the fluorescent lights turned off. The petri dish is removed from the shaker and the labeled cell suspension is transferred to a 15 mL conical tube and washed twice with HBSS as above. The cell pellet is resuspended in 12 mL HBSS and left wrapped in foil for 30 minutes at room temperature. The labeled cell suspension is aliquoted (100 μL/well) into a Dynex 96 well white opaque tissue culture plate. […] Selected compounds were tested for dose related activity. Test samples and activator (anti-CD3 mAb at final concentration of 4 μg/mL, PharMingen) are added manually (50 μL), such that the minimum time to acquire the first data point after stimulation is approximately 30 seconds. The calcium influx response to anti-CD3 mAb is measured as an “end point” assay. The entire plate is read in 100 seconds using a kinetic of 1 second per well.\nThe plate is read before the addition of anti-CD3 to monitor non-specific effect of samples/drugs. Fluorescence emission is measured at 510 nm with excitation alternating between 340 and 380 every second using an excitation/emission filter pair. Data from these dual wavelengths are represented as a ratio of 2 excitations wavelengths. This ratio is independent of intracellular dye and cell concentrations, enabling real comparison between experiments."}, "[4]": {"assay": "Pharmacokinetic profile in the monkey", "format": "in vivo"}, "[5]": {"assay": "Pharmacokinetic profile in the rat", "format": "in vivo"}, "physchem": {"assay": "physchem", "conditions": "water"}, "[6]": {"conditions": "5 mg/kg/day for 4 days, corn oil, lung lavage fluid, relative to control animals"}, "[7]": {"conditions": "0.1 mg/kg, 4 days qd, water vehicle"}, "[8]": {"conditions": "0.3 mg/kg, 4 days qd, water vehicle"}, "[9]": {"conditions": "1 mg/kg, 4 days qd, water vehicle"}}, "data": [{"smiles": "C/C=C1/CCC2C3C(CC[C@]12C)[C@@]1(C)CC[C@H](N)CC1[C@@H](O)[C@@H]3O", "note": "(some centres unmarked) [Compound 28]", "values": [{"measurement": "IC50", "setting": "[1]", "result": 6.8, "unit": "µM"}, {"measurement": "remains unchanged after 15 and even 30 minutes incubation with human S9 fractions", "setting": "[2]; human, s9, 0.5 h, 10 μM, pH 7", "result": 100, "unit": "%"}, {"measurement": "% inhibition of eosinophils", "setting": "[3]; [6]", "result": 85, "unit": "%"}, {"measurement": "inhibition at 20 µM", "setting": "Jurkat clone E6.1 cells", "result": 29, "unit": "%"}, {"measurement": "maximal concentration in plasma", "setting": "[4]", "result": "predictable and linear"}, {"measurement": "maximal concentration in plasma", "setting": "[5]", "result": "predictable and linear"}]}, {"smiles": "C/C=C1/CCC2C3C(CC[C@]12C)[C@@]1(C)CC[C@H](N)CC1[C@@H](O)[C@@H]3O", "note": "(some centres unmarked) [Compound 83]", "values": [{"measurement": "IC50", "setting": "[1]", "result": 7.7, "unit": "µM"}, {"measurement": "% inhibition of eosinophils", "setting": "[3]; [6]", "result": 67, "unit": "%"}, {"measurement": "inhibition at 20 µM", "setting": "Jurkat clone E6.1 cells", "result": 30.3, "unit": "%"}, {"measurement": "solubility", "setting": "physchem", "result": "> 100", "unit": "mg/mL"}]}, {"smiles": "C=C1CCC2C3C(CC[C@]12C)[C@@]1(C)CC[C@H](N)CC1[C@@H](O)[C@@H]3O", "note": "(some centres unmarked) [Compound 89]", "values": [{"measurement": "remains unchanged after 15 and even 30 minutes incubation with human S9 fractions", "setting": "[2]; human, s9, 0.5 h, 10 μM, pH 7", "result": 100, "unit": "%"}, {"measurement": "% inhibition of eosinophils", "setting": "[3]; [6]", "result": 57, "unit": "%"}, {"measurement": "maximal concentration in plasma", "setting": "[4]", "result": "predictable and linear"}, {"measurement": "maximal concentration in plasma", "setting": "[5]", "result": "predictable and linear"}]}, {"smiles": "CC1(C)CCC2=C1CCC1C2[C@@H](O)[C@H](O)C2C[C@@H](N)CC[C@]12C", "note": "(some centres unmarked) [Compound 139]", "values": [{"measurement": "IC50", "setting": "[1]", "result": 10.3, "unit": "µM"}, {"measurement": "% remaining after 15 min", "setting": "[2]; human, s9, 15 min, 10 μM, pH 7", "result": "109 ± 26", "unit": "%"}, {"measurement": "remains unchanged after 15 and even 30 minutes incubation with human S9 fractions", "setting": "[2]; human, s9, 0.5 h, 10 μM, pH 7", "result": 100, "unit": "%"}, {"measurement": "% remaining after 30 min", "setting": "[2]; human, s9, 30 min, 10 μM, pH 7", "result": "100 ± 10", "unit": "%"}, {"measurement": "% inhibition of eosinophils", "setting": "[3]; [7]", "result": 46, "unit": "%"}, {"measurement": "% inhibition of lymphocytes", "setting": "[3]; [7]", "result": 19, "unit": "%"}, {"measurement": "% inhibition of neutrophils", "setting": "[3]; [7]", "result": 42, "unit": "%"}, {"measurement": "% inhibition of eosinophils", "setting": "[3]; [8]", "result": 41, "unit": "%"}, {"measurement": "% inhibition of lymphocytes", "setting": "[3]; [8]", "result": 34, "unit": "%"}, {"measurement": "% inhibition of neutrophils", "setting": "[3]; [8]", "result": 62, "unit": "%"}, {"measurement": "% inhibition of eosinophils", "setting": "[3]; [9]", "result": 42, "unit": "%"}, {"measurement": "% inhibition of lymphocytes", "setting": "[3]; [9]", "result": 56, "unit": "%"}, {"measurement": "% inhibition of neutrophils", "setting": "[3]; [9]", "result": 63, "unit": "%"}, {"measurement": "inhibition at 20 µM", "setting": "Jurkat clone E6.1 cells", "result": 26.3, "unit": "%"}]}, {"smiles": "CCC1(C)CCC2=C1CCC1C2C(O)C(O)C2CC(N)CCC21C.Cl", "note": "(centres unmarked) [Compound 143]", "values": [{"measurement": "remains unchanged after 15 and even 30 minutes incubation with human S9 fractions", "setting": "[2]; 15 and 30 minutes, human S9 fractions", "result": 100, "unit": "%"}]}]}
